molecular target: Inosine-5'-monophosphate dehydrogenase 2 (Homo sapiens, UniProt P12268); assay: Inhibition of IMPDH2

CC(C)(C)c1ccc(/C=C/C(=O)Nc2ccc3c(c2)COC3=O)cc1 was tested. Which IC50 did it give?
Its IC50 is 3.2 µM.

CC(=O)Oc1ccc(/C=C/C(=O)Nc2ccc3c(c2)COC3=O)cc1OC(C)=O was tested. Which IC50 did it give?
Its IC50 is 2.8 µM.

How did the IC50 turn out when COc1ccc(/C=C/C(=O)Nc2ccc3c(c2)COC3=O)cc1OC was run?
Its IC50 is 2.1 µM.

Which IC50 does the source give for O=C(/C=C/c1cccc(F)c1)Nc1ccc2c(c1)COC2=O here?
The IC50 was 4.5 µM.

CC(=O)Oc1cccc(/C=C/C(=O)Nc2ccc3c(c2)COC3=O)c1 was tested. Which IC50 did it give?
Its IC50 is 8.8 µM.

tested on: T-cell; assay: Immunosuppressive activity in mouse T-cells assessed as inhibition of concanavalin A-induced proliferation; type: functional, cell-based

COc1cc(CCC(=O)Nc2ccc3c(c2)COC3=O)cc(OC)c1OC was tested. Which IC50 did it give?
The IC50 was 7.74 µM.

Cc1ccc(NC(=O)Nc2ccc3c(c2)COC3=O)cc1 was tested. Which IC50 did it give?
Its IC50 is 2.67 µM.

For O=C(Nc1ccc(O)cc1)C(=O)Nc1ccc2c(c1)COC2=O, which IC50 is on record?
The IC50 was 5.03 µM.

With CCCNC(=O)Nc1ccc2c(c1)COC2=O as the molecule, how does the IC50 read?
Its IC50 is 58.1 µM.

Cc1cccc(NC(=O)Nc2ccc3c(c2)COC3=O)c1 was tested. Which IC50 did it give?
The IC50 was 2.26 µM.

How did the IC50 turn out when O=C(Nc1ccccc1)Nc1ccc2c(c1)COC2=O was run?
Its IC50 is 7.09 µM.

How did the IC50 turn out when O=C(Nc1ccc(I)cc1)Nc1ccc2c(c1)COC2=O was run?
The IC50 was 1.37 µM.

With N#Cc1ccc(/C=C/C(=O)Nc2ccc3c(c2)COC3=O)cc1 as the molecule, how does the IC50 read?
Its IC50 is 43.1 µM.

Which IC50 does the source give for CC(C)(C)c1ccc(/C=C/C(=O)Nc2ccc3c(c2)COC3=O)cc1 here?
The IC50 was 0.72 µM.

For CC(=O)Oc1ccc(/C=C/C(=O)Nc2ccc3c(c2)COC3=O)cc1OC(C)=O, which IC50 is on record?
The IC50 was 0.18 µM.

With Cc1ccccc1NC(=O)Nc1ccc2c(c1)COC2=O as the molecule, how does the IC50 read?
The IC50 was 0.9 µM.

For CN(Cc1ccccc1)C(=O)C(=O)Nc1ccc2c(c1)COC2=O, which IC50 is on record?
The IC50 was 14.3 µM.

With O=C(Nc1ccccc1)C(=O)Nc1ccc2c(c1)COC2=O as the molecule, how does the IC50 read?
The IC50 was 36.1 µM.

Which IC50 does the source give for O=C(/C=C/c1ccccc1)Nc1ccc2c(c1)COC2=O here?
The IC50 was 7.24 µM.

Which IC50 does the source give for COc1ccccc1/C=C/C(=O)Nc1ccc2c(c1)COC2=O here?
The IC50 was 0.039 µM.

How did the IC50 turn out when O=C(Nc1cccc([N+](=O)[O-])c1)C(=O)Nc1ccc2c(c1)COC2=O was run?
Its IC50 is 1.82 µM.

How did the IC50 turn out when COc1cc(CN(C)C(=O)C(=O)Nc2ccc3c(c2)COC3=O)cc(OC)c1OC was run?
The IC50 was 3.28 µM.

With O=C(/C=C/c1ccccn1)Nc1ccc2c(c1)COC2=O as the molecule, how does the IC50 read?
Its IC50 is 17.9 µM.

For O=C(Nc1ccc2c(c1)COC2=O)NC1CCCCC1, which IC50 is on record?
The IC50 was 12.7 µM.

With CN(C(=O)Nc1ccc2c(c1)COC2=O)c1ccccc1 as the molecule, how does the IC50 read?
Its IC50 is over 100 µM.

How did the IC50 turn out when O=C(Nc1ccc(F)cc1)C(=O)Nc1ccc2c(c1)COC2=O was run?
The IC50 was 0.57 µM.

For O=C(Nc1ccc(Cl)cc1)Nc1ccc2c(c1)COC2=O, which IC50 is on record?
Its IC50 is 2.45 µM.

With O=C(/C=C/c1ccco1)Nc1ccc2c(c1)COC2=O as the molecule, how does the IC50 read?
Its IC50 is 9 µM.

Which IC50 does the source give for COc1ccc(/C=C/C(=O)Nc2ccc3c(c2)COC3=O)cc1OC here?
The IC50 was 0.029 µM.

O=C(/C=C/c1cccc(F)c1)Nc1ccc2c(c1)COC2=O was tested. Which IC50 did it give?
Its IC50 is 0.034 µM.

Which IC50 does the source give for CC(=O)Oc1cccc(/C=C/C(=O)Nc2ccc3c(c2)COC3=O)c1 here?
The IC50 was 0.03 µM.

With COc1cc(/C=C/C(=O)Nc2ccc3c(c2)COC3=O)cc(OC)c1OC as the molecule, how does the IC50 read?
The IC50 was 1.73 µM.

For COc1ccc(NC(=O)C(=O)Nc2ccc3c(c2)COC3=O)cc1, which IC50 is on record?
The IC50 was 153 µM.

For O=C(/C=C/c1ccccc1Br)Nc1ccc2c(c1)COC2=O, which IC50 is on record?
The IC50 was over 100 µM.

With COc1c(C)c2c(c(O)c1C/C=C(\C)CCC(=O)O)C(=O)OC2 [MYCOPHENOLIC ACID] as the molecule, how does the IC50 read?
The IC50 was 0.28 µM.

Which IC50 does the source give for COc1cc(/C=C/C(=O)Nc2ccc3c(c2)COC3=O)ccc1OC(C)=O here?
The IC50 was 0.136 µM.

With CC(C)c1ccc(/C=C/C(=O)Nc2ccc3c(c2)COC3=O)cc1 as the molecule, how does the IC50 read?
The IC50 was 1.59 µM.

How did the IC50 turn out when Cc1ccccc1NC(=O)C(=O)Nc1ccc2c(c1)COC2=O was run?
The IC50 was 5.51 µM.

Which IC50 does the source give for O=C(Nc1ccc(F)cc1)Nc1ccc2c(c1)COC2=O here?
The IC50 was 4.19 µM.

CC(C)(C)NC(=O)C(=O)Nc1ccc2c(c1)COC2=O was tested. Which IC50 did it give?
The IC50 was 3.4 µM.

For O=C(Nc1ccc(Cl)cc1)C(=O)Nc1ccc2c(c1)COC2=O, which IC50 is on record?
Its IC50 is 2.24 µM.

Source: ChEMBL document CHEMBL1933067, “The design, synthesis and in vitro immunosuppressive evaluation of novel isobenzofuran derivatives” (Bioorg Med Chem Lett, 2012)
